In patent US20250154198A1, “PEPTIDE INHIBITORS OF INTERLEUKIN-23 RECEPTOR” (Zealand Pharma A/S, priority 2021, published 2025):
Where two headings read alike, the source gives them in different places. One block for each compound: values may come before it. *1 amine or outer side, *2 acyl side, *3 side chain or, on linkers, in order; H or OH if unused. Where a SMILES comes first, the peptide text is derived from it. Bridges are numbered along the chain shown (N, C = ends). [ ]: non-standard residue; d: D form. αMeL = CC(C)C[C@](C)(N)C(=O)O; CH2COCH2 = O=C(C[*:1])C[*:2]

Experiments:
[1] = biological target: IL-23 mediated phospho-STAT3 formation in DB cells (Homo sapiens, UniProt Q5VWK5); test: Functional inhibition of IL-23 mediated STAT3 signalling (phospho-STAT3 Tyr705 MSD) in DB cells; assay type: cell-based
Text: Functional Inhibition of IL-23 Mediated STAT3 Signalling by Compounds
Upon binding of IL-23, the IL-23R forms a heterodimer signalling complex together with IL-12R β1, which through the JAK2/STAT3 pathway promotes phosphorylation of STAT3 to form phospho-STAT3.
The assay was used to quantify the functional antagonism of a compound and to rank order the inhibitor compounds according to their potency. For compounds tested in this assay, the response was normalized relative to control values to calculate the IC50 and maximal inhibitory response from a concentration response curve of the compound in presence of a fixed concentration of human IL-23.
The assay procedure was as follows. […] Following preincubation of the DB cells with inhibitor for 15 min in a cell incubator (37° C., 5% CO2), 20 μL of the prepared 3× the EC80 of hIL-23 solution was added to each well and incubated for 90 min in a cell incubator (37° C., 5% CO2). For some wells buffer only or IL-23 only corresponding to the EC80 was added to obtain readouts needed for normalization. To terminate the assay, the plate was spun at 1000 G for 5 min to pellet cells, the supernatant removed using an 8-channel manual pipette, and then added 50 μL/well Complete Lysis Buffer from the MSD STAT3 kit (Cat #K150SVD, Mesoscale) to the cell pellet. To completely lyse cells to release phospho-STAT3 for detection, the plate was shaken for 10 min at room temperature (500 rpm) sealed with aluminum foil and placed at −80° C. for a minimum of 15 min. Detection of the phospho-STAT3 level in the cell lysate from the individual wells was determined using the MSD STAT3 kit (Cat #K150SVD, Mesoscale) and read on a Meso QuickPlex SQ 120 plate reader (Mesoscale).
For data analysis raw data counts from the Meso QuickPlex SQ 120 plate reader were normalized relative to the response by the EC80 of hIL-23 alone (no compound added) and the buffer level. Compound potency (IC50) and maximal inhibitory response (% inhibition) were estimated by computer-aided curve fitting using a 4-parameter logistic (4PL) non-linear model.

human IL-23R = biological target: T1, human IL-23R (Homo sapiens, UniProt Q5VWK5); test: Binding assay (NanoBRET displacement of fluorophore-labelled reference compound) for estimating binding affinity to human IL-23R
T1 construct: UniProtKB—Q5VWK5, amino acids 22-629; secretion signal of the plasmid (Promega N1371); expressed in transfected cells
T1 sequence (Q5VWK5 22-629): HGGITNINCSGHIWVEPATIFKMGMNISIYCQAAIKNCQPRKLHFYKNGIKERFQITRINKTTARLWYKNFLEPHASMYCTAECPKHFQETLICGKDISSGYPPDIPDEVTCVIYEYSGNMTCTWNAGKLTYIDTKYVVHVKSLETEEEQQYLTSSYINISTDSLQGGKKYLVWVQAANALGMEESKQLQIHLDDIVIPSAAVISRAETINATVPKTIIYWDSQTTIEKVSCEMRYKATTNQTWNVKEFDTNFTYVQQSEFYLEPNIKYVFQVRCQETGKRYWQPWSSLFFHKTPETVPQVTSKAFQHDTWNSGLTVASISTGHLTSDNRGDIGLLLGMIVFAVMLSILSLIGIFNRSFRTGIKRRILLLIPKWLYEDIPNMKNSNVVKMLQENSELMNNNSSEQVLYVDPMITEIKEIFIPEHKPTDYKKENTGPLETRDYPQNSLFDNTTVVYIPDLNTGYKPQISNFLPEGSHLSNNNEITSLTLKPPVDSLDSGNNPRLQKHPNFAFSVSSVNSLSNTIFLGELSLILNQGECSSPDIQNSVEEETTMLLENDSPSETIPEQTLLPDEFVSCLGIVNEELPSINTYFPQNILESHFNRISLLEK

[2] = Table 3-1, DB cells, read-out: IC50 (pSTAT3)
[3] = Table 3-1, read-out: Ki hIL-23R
[4] = Table 2-5b, DB cells, read-out: IC50 (pSTAT3)
[5] = Table 2-7b, DB cells, read-out: IC50 (pSTAT3)
[6] = Table 2-7b, read-out: Ki IL-23R

SMILES: CC(=O)N[C@@H](CC(=O)O)C(=O)N[C@H]1CCCCNC(=O)CC[C@@H](C(=O)N[C@@H](CCCNC(=N)N)C(N)=O)NC(=O)[C@H](CC(C)C)NC(=O)[C@H](Cc2ccc3ccccc3c2)NC(=O)[C@H](Cc2c[nH]c3ccccc23)NC(=O)[C@@H]2CSCC(=O)CSC[C@H](NC(=O)[C@H](CO)NC1=O)C(=O)N[C@@H](Cc1c[nH]c3ccccc13)C(=O)N[C@@H](CCC(N)=O)C(=O)N2 [Compound 19, [Ac]-DK(1c)SC(2a)WQC(2a)W[2-Nal]LE(1c)R-[NH2]] (HELM PEPTIDE1{[ac].D.K.S.C.W.Q.C.W.[O=C([C@H](Cc1ccc2ccccc2c1)N[*:1])[*:2]].L.E.R.[am]}|CHEM1{[O=C(C[*:1])C[*:2]]}$PEPTIDE1,PEPTIDE1,3:R3-12:R3|PEPTIDE1,CHEM1,5:R3-1:R1|PEPTIDE1,CHEM1,8:R3-1:R2$$$V2.0)
IC50 ([1]; Table 2-6b, DB cells, read-out: IC50 (pSTAT3)): 32.3 nM | Ki (human IL-23R; Table 2-6b, read-out: Ki IL-23R): 6.32 nM

SMILES: CC(=O)N[C@@H](CC(=O)O)C(=O)N[C@H]1CSCC(=O)CSC[C@@H](C(=O)N[C@@H](CCCNC(=N)N)C(N)=O)NC(=O)[C@](C)(CC(C)C)NC(=O)[C@H](Cc2c[nH]c3ccccc23)NC(=O)[C@H](Cc2ccc(O)cc2)NC(=O)[C@@H]2CSCC(=O)CSC[C@H](NC(=O)[C@H](CCC(N)=O)NC1=O)C(=O)N[C@@H](Cc1c[nH]c3ccccc13)C(=O)N[C@@H](CCC(N)=O)C(=O)N2 [Compound 63, [Ac]-DC(1a)QC(2a)WQC(2a)YW[2-Me-Leu]C(1a)R-[NH2]] (Ac-DCQCWQCYW[αMeL]CR-NH2; linker 2-11, 4-7 via CH2COCH2)
IC50 [1]: > 1000 nM | Ki (human IL-23R): > 1000 nM

SMILES: CC(=O)N[C@@H](CC(=O)O)C(=O)N[C@H]1CCC(=O)NCCCC[C@@H](C(=O)N[C@@H](CCCNC(=N)N)C(N)=O)NC(=O)[C@H](CC(C)C)NC(=O)[C@H](Cc2c[nH]c3ccccc23)NC(=O)[C@H](Cc2c[nH]c3ccccc23)NC(=O)[C@@H]2CSCC(=O)CSC[C@H](NC(=O)[C@H](CO)NC1=O)C(=O)N[C@@H](Cc1c[nH]c3c(C)cccc13)C(=O)N[C@@H](CCC(N)=O)C(=O)N2 [Compound 16, [Ac]-DE(1c)SC(2a)[7-Me-Trp]QC(2a)WWLK(1c)R-[NH2]] (HELM PEPTIDE1{[ac].D.E.S.C.[Cc1cccc2c(C[C@H](N[*:1])C(=O)[*:2])c[nH]c12].Q.C.W.W.L.K.R.[am]}|CHEM1{[O=C(C[*:1])C[*:2]]}$PEPTIDE1,PEPTIDE1,3:R3-12:R3|PEPTIDE1,CHEM1,5:R3-1:R1|PEPTIDE1,CHEM1,8:R3-1:R2$$$V2.0)
IC50 [1, 4]: 461 nM | Ki (human IL-23R; Table 2-5b, read-out: Ki IL-23R): 95.4 nM

SMILES: CC(C)C[C@@H]1NC(=O)[C@H](Cc2c[nH]c3ccccc23)NC(=O)[C@H](Cc2c[nH]c3ccccc23)NC(=O)[C@@H]2CSSC[C@H](NC(=O)[C@H](CO)NC(=O)[C@@H](NC(=O)[C@@H](N)CC(=O)O)CSSC[C@@H](C(=O)N[C@@H](CCCNC(=N)N)C(N)=O)NC1=O)C(=O)N[C@@H](Cc1c[nH]c3ccccc13)C(=O)N[C@@H](CCC(N)=O)C(=O)N2 [Ref 1, H-DC(1b)SC(2b)WQC(2b)WWLC(1b)R-[NH2], reference compound]
IC50 [1]: > 1000 nM | IC50 ([1]; read-out: IC50 (pSTAT3), Table 3-1, DB cells): > 1000 nM | Ki (human IL-23R): > 1000 nM | IL-23R inhibitory activity (in words) (human IL-23R; with reference to Ki and IC50 data of the Examples): inactive

SMILES: CC(C)C[C@@H]1NC(=O)[C@H](Cc2c[nH]c3ccccc23)NC(=O)[C@H](Cc2c[nH]c3ccccc23)NC(=O)[C@@H]2CSCC(=O)CSC[C@H](NC(=O)[C@H](CO)NC(=O)[C@@H](NC(=O)[C@@H](N)CC(=O)O)CCC(=O)NCCCC[C@@H](C(=O)N[C@@H](CCCNC(=N)N)C(N)=O)NC1=O)C(=O)N[C@@H](Cc1c[nH]c3ccccc13)C(=O)N[C@@H](CCC(N)=O)C(=O)N2 [Compound 4, H-DE(1c)SC(2a)WQC(2a)WWLK(1c)R-[NH2]] (HELM PEPTIDE1{D.E.S.C.W.Q.C.W.W.L.K.R.[am]}|CHEM1{[O=C(C[*:1])C[*:2]]}$PEPTIDE1,PEPTIDE1,2:R3-11:R3|PEPTIDE1,CHEM1,4:R3-1:R1|PEPTIDE1,CHEM1,7:R3-1:R2$$$V2.0)
IC50 ([1]; Table 2-3b, DB cells, read-out: IC50 (pSTAT3)): > 1000 nM | IC50 ([1]; Table 2-4b, DB cells, read-out: IC50 (pSTAT3)): > 1000 nM | IC50 [1, 4]: > 1000 nM | potency depending on location of the amide bond in the [2,11] lactam bridge (in words) (human IL-23R; Compound 7 (amide closer to position 11) versus Compound 4 (closer to position 2), Table 2-3b): less active

Second part, the compound after the results:

IC50 [1, 2]: > 1000 nM | Ki (human IL-23R; [3]): > 1000 nM
SMILES: CC(C)C[C@@H]1NC(=O)[C@H](Cc2c[nH]c3ccccc23)NC(=O)[C@H](Cc2c[nH]c3ccccc23)NC(=O)[C@H](Cc2ccc(O)cc2)NC(=O)[C@H](CCC(N)=O)NC(=O)[C@H](Cc2c[nH]c3ccccc23)NC(=O)[C@H]([C@@H](C)O)NC(=O)[C@H](CO)NC(=O)[C@@H](NC(=O)[C@@H](N)CC(=O)O)CCC(=O)NCCCC[C@@H](C(=O)N[C@@H](CCCNC(=N)N)C(N)=O)NC1=O [Ref 3, reference compound] (HELM PEPTIDE1{D.E.S.T.W.Q.Y.W.W.L.K.R.[am]}$PEPTIDE1,PEPTIDE1,2:R3-11:R3$$$V2.0)

IC50 [1, 5]: 79.2 nM | Ki (human IL-23R; [6]): 24.6 nM
SMILES: CC(=O)N[C@@H](CC(=O)O)C(=O)N[C@H]1CCCCNC(=O)CC[C@@H](C(=O)N[C@@H](CCCNC(=N)N)C(N)=O)NC(=O)[C@H](CC(C)C)NC(=O)[C@H](Cc2ccc3ccccc3c2)NC(=O)[C@H](Cc2c[nH]c3ccccc23)NC(=O)[C@@H]2CSCc3ccccc3CSC[C@H](NC(=O)[C@H](CO)NC1=O)C(=O)N[C@@H](Cc1c[nH]c3ccccc13)C(=O)N[C@@H](CCC(N)=O)C(=O)N2 [Compound 20, [Ac]-DK(1c)SC(2d)WQC(2d)W[2-Nal]LE(1c)R-[NH2]] (HELM PEPTIDE1{[ac].D.K.S.C.W.Q.C.W.[O=C([C@H](Cc1ccc2ccccc2c1)N[*:1])[*:2]].L.E.R.[am]}|CHEM1{[c1ccc(C[*:2])c(C[*:1])c1]}$PEPTIDE1,PEPTIDE1,3:R3-12:R3|PEPTIDE1,CHEM1,5:R3-1:R1|PEPTIDE1,CHEM1,8:R3-1:R2$$$V2.0)

IC50 [1, 5]: > 1000 nM | IC50 [1, 2]: > 1000 nM | Ki (human IL-23R; [6]): 634 nM
SMILES: CC(=O)N[C@@H](CC(=O)O)C(=O)N[C@H]1CCCCNC(=O)CC[C@@H](C(=O)N[C@@H](CCCNC(=N)N)C(N)=O)NC(=O)[C@H](CC(C)C)NC(=O)[C@H](Cc2ccc3ccccc3c2)NC(=O)[C@H](Cc2c[nH]c3ccccc23)NC(=O)[C@@H]2CSCc3cccc(c3)CSC[C@H](NC(=O)[C@H](CO)NC1=O)C(=O)N[C@@H](Cc1c[nH]c3ccccc13)C(=O)N[C@@H](CCC(N)=O)C(=O)N2 [Compound 21, [Ac]-DK(1c)SC(2e)WQC(2e)W[2-Nal]LE(1c)R-[NH2]] (HELM PEPTIDE1{[ac].D.K.S.C.W.Q.C.W.[O=C([C@H](Cc1ccc2ccccc2c1)N[*:1])[*:2]].L.E.R.[am]}|CHEM1{[c1cc(C[*:1])cc(C[*:2])c1]}$PEPTIDE1,PEPTIDE1,3:R3-12:R3|PEPTIDE1,CHEM1,5:R3-1:R1|PEPTIDE1,CHEM1,8:R3-1:R2$$$V2.0)

IC50 [1, 2]: > 1000 nM | Ki (human IL-23R; [3]): > 1000 nM
SMILES: CC(C)C[C@@H]1NC(=O)[C@H](Cc2c[nH]c3ccccc23)NC(=O)[C@H](Cc2c[nH]c3ccccc23)NC(=O)[C@H](CO)NC(=O)[C@H](CCC(N)=O)NC(=O)[C@H](Cc2c[nH]c3ccccc23)NC(=O)[C@H](CO)NC(=O)[C@H](CO)NC(=O)[C@@H](NC(=O)[C@@H](N)CC(=O)O)CCC(=O)NCCCC[C@@H](C(=O)N[C@@H](CCCNC(=N)N)C(N)=O)NC1=O [Ref 2, reference compound] (HELM PEPTIDE1{D.E.S.S.W.Q.S.W.W.L.K.R.[am]}$PEPTIDE1,PEPTIDE1,2:R3-11:R3$$$V2.0)
